Source: patent US6765128B1, “Method of using a pathogen-activatable map kinase to enhance disease resistance in plants” (priority 1998, dated 2004)

Legend:
[1] = system: WIPK-encoded 44-kD kinase; experiment: Phosphatase treatment of protein extracts, then in-gel kinase activity assay; format: biochemical, tobacco; settings: okadaic acid 1 μM; Na3VO4 1 mM
Experimental: (§1) In-gel kinase activity assay. The in-gel kinase activity assay was performed as described previously (zhang & Klessig, 1997). The relative kinase activity were quantitated using a PhosphorImager (Molecular Dynamics Inc., Sunnyvale, Calif.) and normalized to the level present at the zero time point for the 48-kD kinase, which was given a value of 1.
(§2) Treatment of protein extracts with phosphatases. Protein extracts were prepared in the absence of phosphatase inhibitors from TMV-infected leaves at 8 hr after shifting plants from 32° C. to 22° C. or 48 hr after infection at 22° C. Samples containing 20 μg of protein were treated with either the serine/threonine-specific phosphatase, PP-2A1 (0.25 units in 30 μL; Upstate Biotechnology, Lake Placid, N.Y.), or the tyrosine-specific protein phosphatase, YOP (2 units in 30 μL; NEB), for 20 min at 30° C. in the presence or absence of a phosphatase inhibitor. The PP-2A1 inhibitor, okadaic acid, and YOP inhibitor, Na3VO4 were used at a concentration of 1 μM and 1 mM, respectively. After phosphatase treatment, kinase activity was detected by the in-gel kinase activity assay.

48-kD SIPK = experiment: as above; format: biochemical, tobacco; settings: okadaic acid 1 μM; Na3VO4 1 mM
Experimental: as §1, §2

SIPK = settings: Zhang & Klessig, 1997; cited from earlier work
His-tagged WIPK protein = experiment: Immunoblot analysis of Ab-p44N against a panel of His-tagged MAP kinases; format: binding, tobacco; settings: 0.2 μg/mL competitor peptide
Experimental: Antibody production and immunoblot analysis. The peptides p44N (MADANMGAGGGQFPDFPS; SEQ ID NO: 2) and p48N ([…]; SEQ ID NO: 3), which correspond respectively to the unique N-termini of the WIPK and the SIPK proteins, were synthesized and conjugated to keyhole limpet hemacyanin (KLH) carrier. Polyclonal antisera were raised in rabbits and purified by affinity column chromatography (Zymed Laboratory, South San Francisco, Calif.).
For immunoblot analysis, 20 μg of total protein per lane were separated on 10% SDS-polyacrylamide gels, and the proteins were transferred to nitrocellulose membranes (Schleicher & Schuell, Inc., Keene, N.H.) by semi-dry electroblotting. […]
The 44-kD kinase activated by TWV in encoded by WIPK. […] The specificity of the Ab-p44N was assessed by immunoblot analysis against a panel of different MAP kinases as described above for Ab-p48N.

Effect of competitor peptide on binding of Ab-p44N to His-tagged WIPK protein (His-tagged WIPK protein)	Compound	Effect of phosphatase inhibitor on inactivation of WIPK by PP-2A1 and YOP [1]	Effect of phosphatase inhibitor on inactivation of SIPK by PP-2A1 and YOP (48-kD SIPK)	Activation of SIPK by treatment (SIPK)
–	C=C1[C@@H](O)[C@@H]2O[C@]3(CC[C@H](/C=C/[C@@H](C)[C@@H]4CC(C)=C[C@@]5(O[C@H](C[C@@](C)(O)C(=O)O)CC[C@H]5O)O4)O3)CC[C@H]2O[C@@H]1[C@@H](O)C[C@H](C)[C@H]1O[C@@]2(CCCCO2)CC[C@H]1C [okadaic acid]	prevented	prevented	–
–	[Na+].[Na+].[Na+].[O]=[V]([O-])([O-])[O-] [vanadate, Na3VO4]	prevented	prevented	–
–	O=C(O)c1ccccc1O [SA, salicylic acid]	–	–	activated
not	MDGSGQQTDTMMSDAGAEQPPTAP [p48N, peptide corresponding to the unique N-terminus of SIPK]	–	–	–
blocked binding	MADANMGAGGGQFPDFPS [p44N]	–	–	–
